Measurements taken from patent publication US4789630A, “Ionic compounds containing the cationic meriquinone of a benzidine” (Cetus Corporation, priority 1986, dated 1988).
Values after ≈ are worked out from the molar mass of the structure shown.

Experiments:
[1] = Crystal nucleation and filter trapping of the fumarate salt of the meriquinone of TMB; format: physicochemical; details: 10 mM Na fumarate, pH 3.92, 25 C
Experimental: (§1) Stock HRP solutions were prepared in 0.10M NaCl, 1.0 mM Na phosphate, pH 6.0 to be 22 ng/ml or 0.43 ng/ml in HRP, shortly before assay, HRP-catalyzed oxidation of TMB by H2 O2 was initiated by adding 20 or 2.0 μl of […] or 20 or 10 μl of 0.43 ng/ml HRP to 1.00 ml of the assay solution at 25° C. […] At the end of each reaction interval, replicate 100 μl volumes of reaction mixture were spotted on a Nuclepore polycarbonate filter (3 μm pore size) and dried by gentle suction to give deposits 3-4 mm in diameter.
The initial velocity was transformed from units of absorbance per time to reciprocal time (turnover number) by dividing by the meriquinone extinction coefficient, 3.9×10^4 M^-1 cm^-1, and by the HRP concentration. […] The transition time is the time to crystal nucleation.

[2] = Solubility of TMB in a series of buffers; format: physicochemical; details: for solubility: read-out: Solubility at 30.9 C
Experimental: These are stoichiometric concentrations, uncorrected for ionization at pH 5.0. […] Each wash involved a total volume of 1.5 ml (pellet volume of about 0.3 ml) in an Eppendorf polypropylene centrifuge tube. […] At 30-60 min intervals, the crystal suspensions were spun 3-5 min at room temperature in a Fisher micro-centrifuge. […] After scanning, the solutions and pellets were returned to the equilibration tubes for renewed shaking. Repeat measurements were taken until precision within 20% was obtained. […] Care was taken to assure that solid meriquinone salt and solid TMB were present in each tube. Excess (saturating) TMB was added to suppress the dissociation of meriquinone charge-transfer complex into component quinone diimine and TMB (see FIG. 1). […] If the concentration was too high to measure undiluted with a 1 cm light path, the scan was performed on an undiluted sample with a 2 mm light path or an appropriately diluted sample (later discarded) with a 1 cm light path.

[3] = pH dependence of TMB solubility (saturating TMB); format: physicochemical; details: room temperature, pH 4.0; read-out: saturating TMB concentration
Experimental: (§2) Regarding step (e), three independent variables (apart from temperature) most strongly influence horseradish […] activity with TMB as chromogenic substrate: TMB concentration, H2 O2 concentration, and pH. […] For relatively short assays (0-10 min.), however, suicide is not severe, and initial velocity is the most important indicator of enzyme activity. Initial velocity rises monotonically with TMB concentration, and is almost proportional to TMB concentration at a H2 O2 concentration of greater than 2 mM. The pH dependence of initial velocity at constant TMB concentration indicates an optimum pH at 4. The pH dependence of TMB solubility indicates a monotonic and increasingly steep rise as the pH is lowered from 5. […] Therefore, a pH of 3.5-4.5 is the preferred pH range for step (e), more preferably pH 4.0, if the substituted benzidine is TMB and the oxidation catalyst is horseradish peroxidase. The optimum horseradish peroxidase assay conditions are at room temperature, pH 4.0, 0.4 mM (saturating) TMB, and 2-3 mM H2 O2.

horseradish peroxidase = target: T1, horseradish peroxidase (Armoracia rusticana, UniProt P00433); test: Horseradish peroxidase activity with TMB as chromogenic substrate, pH dependence; format: biochemical; details: from pH 5.0 to pH 4.0
T1 sequence (P00433 31-353): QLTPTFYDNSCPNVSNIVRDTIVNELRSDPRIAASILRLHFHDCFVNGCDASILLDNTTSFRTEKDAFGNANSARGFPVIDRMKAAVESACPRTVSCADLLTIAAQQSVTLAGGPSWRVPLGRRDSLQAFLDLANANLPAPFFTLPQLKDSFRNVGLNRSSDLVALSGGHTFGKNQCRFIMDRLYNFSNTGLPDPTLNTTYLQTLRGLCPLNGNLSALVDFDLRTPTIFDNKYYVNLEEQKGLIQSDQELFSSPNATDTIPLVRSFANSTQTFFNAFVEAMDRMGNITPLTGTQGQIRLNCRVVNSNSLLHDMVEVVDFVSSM
Experimental: as §2

[4] = target: T2, horseradish peroxidase (HRP) (Armoracia rusticana, UniProt P00433); test: Kinetics of TMB oxidation by H2O2 and HRP in pH 3.9 fumarate-EDTA buffer; format: biochemical; details: 0.31 mM TMB, 3.0 mM H2O2, 10 mM Na fumarate, 1 mM EDTA, pH 3.92, 25 C
T2 sequence (P00433 31-353): T1 sequence (P00433 31-353)
Experimental: as §1, with “At the two lower HRP concentrations (0.22 and 0.11 pM in the cuvette), the reaction was followed for 30 minutes. At the end of” for “At the end of”
The initial velocity was transformed from units of absorbance per time to reciprocal time (turnover number) by dividing by the meriquinone extinction coefficient, 3.9×10^4 M^-1 cm^-1, and by the HRP concentration. […] The transition time is the time to crystal nucleation. […] The A652 of the 30 minute reaction mixture for 0.11 pM HRP was below 0.03, the approximate visual threshold, so that filtration trapping served to concentrate the signal to improve visibility. […] In addition, a white membrane would offer sharper visual contrast than the slightly yellow, translucent, polycarbonate. The transition time has a very shallow HRP concentration dependence, so that even lower HRP concentrations are unlikely to require assay times longer than 30 minutes in order to permit crystallization to occur. The transition time probably could be lowered by adding anionic latex microspheres which might serve to nucleate crystallization.

[5] = Solubilities of salts of the meriquinone of TMB (equilibration of solid salt with buffer, A650)
Experimental: These are stoichiometric concentrations, uncorrected for ionization at pH 5.0. […] Each wash involved a total volume of 1.5 ml (pellet volume of about 0.3 ml) in an Eppendorf polypropylene centrifuge tube. […] At 30-60 min intervals, the crystal suspensions were spun 3-5 min at room temperature in a Fisher micro-centrifuge. […] After scanning, the solutions and pellets were returned to the equilibration tubes for renewed shaking. Repeat measurements were taken until precision within 20% was obtained. […] Care was taken to assure that solid meriquinone salt and solid TMB were present in each tube. Excess (saturating) TMB was added to suppress the dissociation of meriquinone charge-transfer complex into component quinone diimine and TMB (see FIG. 1). […] These spectra contained absorbance peaks at 370 and 650 nm characteristic of meriquinone and a very small shoulder at 450 nm assigned to quinone diimine; a much larger peak near 280 nm confirmed the presence of excess TMB. […] If the concentration was too high to measure undiluted with a 1 cm light path, the scan was performed on an undiluted sample with a 2 mm light path or an appropriately diluted sample (later discarded) with a 1 cm light path.
Solubilities at 0 C. were determined for all solutions in which they were high enough for accurate measurement.
The dashed lines were visually fitted. […]

In the case of `Cc1cc(-c2cc(C)c(N)c(C)c2)cc(C)c1N` [TMB, 3,3',5,5'-tetramethylbenzidine], the “A652 at Transition” value ([1]; [HRP] 0.11 x 10^-12 M) is reported as 0.025, the “Transition Time (time to crystal nucleation)” value (shortened to “Transition Time”) ([1]; [HRP] 0.11 x 10^-12 M) is reported as 10 min and the “A652 at Transition” value ([1]; [HRP] 0.21 x 10^-12 M) is reported as 0.04. The “Transition Time” value ([1]; [HRP] 0.21 x 10^-12 M) was 10 min, the “A652 at Transition” value ([1]; [HRP] 1.1 x 10^-12 M) was 0.08 and the “Transition Time” value ([1]; [HRP] 1.1 x 10^-12 M) was 3 to 4 min. The “A652 at Transition” value ([1]; [HRP] 11 x 10^-12 M) was 0.25-0.50, the “Transition Time” value ([1]; [HRP] 11 x 10^-12 M) was 1 to 2 min and the “Solubility Ratio: 30.9 C/0.0 C” value ([2]; acetate buffer, pH 5.0, 0.10M) was 2.4. The solubility ([2]; aqueous buffer, acetate buffer, pH 5.0, 0.10M) was 170 µM (≈ 40.9 µg/mL), the solubility ([2]; aqueous buffer, citrate buffer, pH 5.0, 0.10M) was 170 µM (≈ 40.9 µg/mL) and the solubility ([2]; aqueous buffer, glutarate buffer, pH 5.0, 0.10M) was 170 µM (≈ 40.9 µg/mL). For the same compound, the solubility ([2]; aqueous buffer, maleate buffer, pH 5.0, 0.10M) was 210 µM (≈ 50.5 µg/mL), the solubility ([2]; aqueous buffer, malonate buffer, pH 5.0, 0.10M) was 160 µM (≈ 38.5 µg/mL) and the solubility ([2]; aqueous buffer, phosphate buffer, pH 5.0, 0.10M) was 160 µM (≈ 38.5 µg/mL). For the same compound, the “Solubility Ratio: 30.9 C/0.0 C” value ([2]; citrate buffer, pH 5.0, 0.10M) was 2.3, the “Solubility Ratio: 30.9 C/0.0 C” value ([2]; fumarate buffer, pH 5.0, 0.10M) was 3.9 and the solubility ([2]; fumarate buffer, pH 5, aqueous buffer) was 160 µM (≈ 38.5 µg/mL). For the same compound, the “Solubility Ratio: 30.9 C/0.0 C” value ([2]; glutarate buffer, pH 5.0, 0.10M) was 2.0, the “Solubility Ratio: 30.9 C/0.0 C” value ([2]; maleate buffer, pH 5.0, 0.10M) was 7.6 and the “Solubility Ratio: 30.9 C/0.0 C” value ([2]; malonate buffer, pH 5.0, 0.10M) was 1.8. The “Solubility Ratio: 30.9 C/0.0 C” value ([2]; oxalate buffer, pH 5.0, 0.10M) was 12, the solubility ([2]; oxalate buffer, pH 5, aqueous buffer) was 160 µM (≈ 38.5 µg/mL) and the “Solubility Ratio: 30.9 C/0.0 C” value ([2]; phosphate buffer, pH 5.0, 0.10M) was 2.0. For the same compound, the “Solubility Ratio: 30.9 C/0.0 C” value ([2]; sulfate buffer, pH 5.0, 0.10M) was 1.9, the solubility ([2]; sulfate buffer, pH 5, aqueous buffer) was 150 µM (≈ 36.1 µg/mL) and the solubility [3] was 400 µM (≈ 96.1 µg/mL). For the same compound, the “increase of initial velocity at saturating TMB” value (horseradish peroxidase) was “four-fold increase”, the Vinitial ([4]; [HRP] 0.11 x 10^-12 M) was 4.4 × 10^-5 WA652 S^-1 and the Vinitial ([4]; [HRP] 0.21 x 10^-12 M) was 8.0 × 10^-5 WA652 S^-1. For the same compound, the Vinitial ([4]; [HRP] 1.1 x 10^-12 M) was 4.1 × 10^-4 WA652 S^-1 and the Vinitial ([4]; [HRP] 11 x 10^-12 M) was 4.2 × 10^-3 WA652 S^-1.
For Maleate, the “Solubility Ratio: 25.2 C/0.0 C” value ([5]; averaged for the different stated concentrations of each salt, buffers pH 5.0 at room temperature) was 8.1 and the “Molar Solubility in 0.1 M Anion” value ([5]; extrapolated, pH 5.0, 10% ethanol, 0.10M sodium acetate, 25.2 C) was 4 × 10^-8 Molar.
